For orientation: % Inhibition means how much of the control response was suppressed. Low readings indicate a response near the control, high ones a response far below the control.

The test has as its system arachidonic acid-induced inflammatory reaction, mouse ear. In words: Arachidonic Acid Mouse Ear Test. The test is classed as in vivo, Charles River, female, CD, (SD) BR mice. The note with it: topical, 30 minutes prior to AA challenge; for Tissue Wt.: 6 mm punch biopsy 1 hour after AA, mean ± standard error; for % Inhibition: biopsy 1 hour after AA. An excerpt:
A compound of formula I may be utilized to treat hyperoroliferative skin disease in a mammal. As used herein, "hyperproliferative skin disease" means any condition a symptom of which is accelerated skin cell production, flaking, scales or papular lesions. Representative examples of hyperproliferative skin diseases include osoriasis, eczema, dandruff and the like. […] The Arachidonic Acid Mouse Ear Test is a recognized model for assessing the effectiveness of compounds for the treatment of hyperproliferative skin disease.
Charles River, female, CD, (SD) BR mice, 6 weeks old, are caged 8/group and allowed to acclimate 1-3 weeks prior to use.
Arachidonic acid (AA) is dissolved in reagent grade acetone (2 mg/0.01 ml) and stored at -20° C. for a maximum of 1 week prior to use. Inflammatory reactions are induced by applying 10 μl of AA to both surfaces of one ear (4 mg total).
Test drugs are dissolved in either reagent grade acetone or acueous ethanol (only if insoluble in acetone) at the same doses selected by Opas et al., Fed. Proc. 43, Abstract 2983, P. 1927 (1984) and Young et al., J. Invest. Dermatol. 82, pp. 367-371 (1984). These doses are employed to ensure maximum responses and to overcome any difference in topical absorption which could occur with any drug applied in an aqueous ethanol vehicle. The test drug is applied 30 minutes prior to challenge with AA.
The severity of the skin reaction is measured as a function of increased ear weight. A 6 mm punch biopsy is removed 1 hour after AA challenge and weighed to the nearest 0.1 mg. Mean ± standard error and all possible comparisons are made via Duncan's Multiple Range Statistic.

As to `O=C1c2cccnc2N(c2ccccc2)C(=O)C12CCCCO2` (centres unmarked) [1-Phenyl-3',4',5',6'-tetrahydro-spiro-[1,8-naphthyridine-3,2'-(2H)pyran]-2,4-dione], the Tissue Wt. runs as follows: (dose 0.125 mg/ear) 4.86 ± 0.39 mg; (dose 0.25 mg/ear) 4.97 ± 0.7 mg; (dose 0.5 mg/ear) 4.39 ± 0.62 mg; (dose 1.0 mg/ear) 2.27 ± 0.29 mg. Besides, the “% Inhibition” value is 30% (dose 0.125 mg/ear), 28% (dose 0.25 mg/ear), 37% (dose 0.5 mg/ear) and 67% (dose 1.0 mg/ear).

Values taken from patent US4775524A, “Method of treating hyperproliferative skin disease with substituted heterospiro pyridine derivatives” (Schering Corporation, priority 1986, dated 1988).
